Among the data in ChEMBL document CHEMBL3880421, “Indazole compounds and pharmaceutical compositions for inhibiting protein kinases, and methods for their use” (2003) are inhibition values, retold here.

Structures are written as SMILES.

The test can be described thus: Antiproliferative activity against VEGF-stimulated HUVEC cells assessed as reduction in cell viability at 10 nM preincubated for 1 hr followed by addition of VEGF measured after 72 hrs by MTT assay. The test is classed as functional. Particulars: Homo sapiens. (Tetrazolium assays rely on reduction of a dye to a coloured formazan, in cell work by metabolically active cells.)

What is called inhibition is the change of the read-out against control, counted positive when it falls. As to `O=C(c1cccc(NC(=O)C2CCCO2)c1)c1ccc2c(/C=C/c3ccccc3)n[nH]c2c1` (configuration not stated), the inhibition at 0.01 µM amounted to 18%.
Next, `CC(C)[C@@H](O)C(=O)Nc1cccc(C(=O)c2ccc3c(/C=C/c4ccccc4)n[nH]c3c2)c1`: 33%; `CC(C)(C)c1ccc(C(=O)Nc2cccc(Oc3ccc4c(/C=C/c5ccccc5)n[nH]c4c3)c2)o1`: 52%; `COc1cccc(/C=C/C(=O)Nc2cccc(Nc3ccc4c(/C=C/c5ccccc5)n[nH]c4c3)c2)c1`: 30%.
Take `CC(C)CC(O)C(=O)Nc1cccc(Oc2ccc3c(/C=C/c4ccccc4)n[nH]c3c2)c1` (configuration not stated): the inhibition at 0.01 µM was 69%.
Next, `CC(C)C(=O)Nc1cccc(Oc2ccc3c(/C=C/c4ccccc4)n[nH]c3c2)c1`: 57%; `C[C@@H]1[C@H](C)[C@H](C)C[C@@H]1C(=O)Nc1cccc(Oc2ccc3c(/C=C/c4ccccc4)n[nH]c3c2)c1`: 23%; `O=C(c1cccc(NC(=O)[C@H]2CCC[C@H]2O)c1)c1ccc2c(/C=C/c3ccccc3)n[nH]c2c1`: 39%.
With `O=C(c1cccc(NC(=O)C(O)c2ccccc2)c1)c1ccc2c(/C=C/c3ccccc3)n[nH]c2c1` (configuration not stated) the figure was 3%; with `C/C=C(\C)C(=O)Nc1cccc(Nc2ccc3c(/C=C/c4ccccc4)n[nH]c3c2)c1`, 98%; with `CC(C)CC(=O)C(=O)Nc1cccc(C(=O)c2ccc3c(/C=C/c4ccccc4)n[nH]c3c2)c1`, 81%.
For the compound `COC1CCCC(C(=O)Nc2cccc(Oc3ccc4c(/C=C/c5ccccc5)n[nH]c4c3)c2)C1` (configuration not stated), the inhibition at 0.01 µM amounted to 91%.
As to `O=C(c1cccc(NC(=O)C2CCOC2)c1)c1ccc2c(/C=C/c3ccccc3)n[nH]c2c1` (configuration not stated), the inhibition at 0.01 µM turned out to be 12%.
Next, `CC(C)C(=O)Nc1cccc(Nc2ccc3c(/C=C/c4ccccc4)n[nH]c3c2)c1`: 24%; `CC(C)[C@@H](O)C(=O)Nc1cccc(Oc2ccc3c(/C=C/c4ccccc4)n[nH]c3c2)c1`: 32%; `COc1ccccc1/C=C/C(=O)Nc1cccc(Nc2ccc3c(/C=C/c4ccccc4)n[nH]c3c2)c1`: 10%.
Next, `O=C(c1cccc(NC(=O)c2cc(=O)[nH]c(=O)[nH]2)c1)c1ccc2c(/C=C/c3ccccc3)n[nH]c2c1`: 14%; `O=C(c1cccc(NC(=O)C2CC3C=CC2CC3)c1)c1ccc2c(/C=C/c3ccccc3)n[nH]c2c1` (configuration not stated): 42%.
Next, `CC1(C)OC(=O)[C@H](CC(=O)Nc2cccc(Oc3ccc4c(/C=C/c5ccccc5)n[nH]c4c3)c2)O1`: 22%; `Cc1ccc(C2(C(=O)Nc3cccc(Oc4ccc5c(/C=C/c6ccccc6)n[nH]c5c4)c3)CC2)cc1`: 4%; `O=C1C[C@H](C(=O)Nc2cccc(Oc3ccc4c(/C=C/c5ccccc5)n[nH]c4c3)c2)NC(=O)N1`: -6%.
Take `O=C(Nc1cccc(Nc2ccc3c(/C=C/c4ccccc4)n[nH]c3c2)c1)C(=O)C1=CCCCC1`: the inhibition at 0.01 µM was determined as 23%.
With `O=C(Cc1cc(F)cc(F)c1)Nc1cccc(Oc2ccc3c(/C=C/c4ccccc4)n[nH]c3c2)c1` the figure was 80%; with `Cc1nc(S)sc1CC(=O)Nc1cccc(Oc2ccc3c(/C=C/c4ccccc4)n[nH]c3c2)c1`, 45%; with `Cc1cc(C(=O)Nc2cccc(Nc3ccc4c(/C=C/c5ccccc5)n[nH]c4c3)c2)no1`, 6%.
With `C/C(=C\C(=O)Nc1cccc(Nc2ccc3c(/C=C/c4ccccc4)n[nH]c3c2)c1)c1ccccc1C` the figure was 75%; with `O=C(Nc1cccc(Nc2ccc3c(/C=C/c4ccccc4)n[nH]c3c2)c1)c1cccc2cc[nH]c12`, 94%; with `Cc1cc(C(=O)Nc2cccc(Nc3ccc4c(/C=C/c5ccccc5)n[nH]c4c3)c2)nn1C`, 95%.
Regarding `O=C(Nc1cccc(Nc2ccc3c(/C=C/c4ccccc4)n[nH]c3c2)c1)[C@H]1CCC[C@H]1O`, the inhibition at 0.01 µM is -4%.
Next, `Cc1cc(C(=O)Nc2cccc(Nc3ccc4c(/C=C/c5ccccc5)n[nH]c4c3)c2)oc(=O)c1`: -8%; `C[C@@H]1[C@H](C)[C@H](C)C[C@@H]1C(=O)Nc1cccc(Nc2ccc3c(/C=C/c4ccccc4)n[nH]c3c2)c1`: 7%; `COC1CCCC(C(=O)Nc2cccc(C(=O)c3ccc4c(/C=C/c5ccccc5)n[nH]c4c3)c2)C1` (configuration not stated): 30%.
With `C[C@@]12C[C@H]3C[C@H]1C[C@@]3(C(=O)Nc1cccc(Oc3ccc4c(/C=C/c5ccccc5)n[nH]c4c3)c1)C2` the figure was 30%.
With `Cc1cc(C(=O)Nc2cccc(C(=O)c3ccc4c(/C=C/c5ccccc5)n[nH]c4c3)c2)no1`, the inhibition at 0.01 µM was 50%.
Next, `COc1cccc(/C=C/C(=O)Nc2cccc(C(=O)c3ccc4c(/C=C/c5ccccc5)n[nH]c4c3)c2)c1`: 35%.
With `O=C(Nc1cccc(C(=O)c2ccc3c(/C=C/c4ccccc4)n[nH]c3c2)c1)c1ccc(=O)oc1` the figure was -62%.
Next, `CC(C)=NOC(C)C(=O)Nc1cccc(Oc2ccc3c(/C=C/c4ccccc4)n[nH]c3c2)c1` (configuration not stated): 80%; `O=C(c1cccc(NC(=O)C2CC3CC(O)C2C3)c1)c1ccc2c(/C=C/c3ccccc3)n[nH]c2c1` (configuration not stated): 64%.
Take `O=C(Nc1cccc(Oc2ccc3c(/C=C/c4ccccc4)n[nH]c3c2)c1)c1cccc2cc[nH]c12`: the inhibition at 0.01 µM came out at 68%.
`COc1cccc(/C=C/C(=O)Nc2cccc(Oc3ccc4c(/C=C/c5ccccc5)n[nH]c4c3)c2)c1`: the inhibition at 0.01 µM amounted to 64%.
Next, `O=C(Nc1cccc(Oc2ccc3c(/C=C/c4ccccc4)n[nH]c3c2)c1)c1cc(=O)[nH]c(=O)[nH]1`: 90%; `CC(C)(C)c1ccc(C(=O)Nc2cccc(C(=O)c3ccc4c(/C=C/c5ccccc5)n[nH]c4c3)c2)o1`: 71%; `Cn1cnc(CC(=O)Nc2cccc(C(=O)c3ccc4c(/C=C/c5ccccc5)n[nH]c4c3)c2)c1`: 31%.
Next, `CC(=O)NC(C)(C)CC(=O)Nc1cccc(Oc2ccc3c(/C=C/c4ccccc4)n[nH]c3c2)c1`: 42%; `CN1CSCCC1C(=O)Nc1cccc(Oc2ccc3c(/C=C/c4ccccc4)n[nH]c3c2)c1` (configuration not stated): 23%; `CCC(C(=O)Nc1cccc(Oc2ccc3c(/C=C/c4ccccc4)n[nH]c3c2)c1)c1ccccc1C` (configuration not stated): 46%.
Next, `CN(C)CCCC(=O)Nc1cccc(Oc2ccc3c(/C=C/c4ccccc4)n[nH]c3c2)c1`: 96%.
Turning to `COc1ccc(C#N)c(C(=O)Nc2cccc(Nc3ccc4c(/C=C/c5ccccc5)n[nH]c4c3)c2)c1`, the inhibition at 0.01 µM is -18%.
Next, `C[C@@H](CC(=O)Nc1cccc(Nc2ccc3c(/C=C/c4ccccc4)n[nH]c3c2)c1)c1ccccc1`: 27%; `CC(C)(C)[C@@H](O)C(=O)Nc1cccc(Nc2ccc3c(/C=C/c4ccccc4)n[nH]c3c2)c1`: 10%; `O=C1C[C@H](C(=O)Nc2cccc(C(=O)c3ccc4c(/C=C/c5ccccc5)n[nH]c4c3)c2)NC(=O)N1`: -36%.
With `C[C@@H](CC(=O)Nc1cccc(C(=O)c2ccc3c(/C=C/c4ccccc4)n[nH]c3c2)c1)c1ccccc1` the figure was 52%.
